In ChEMBL document CHEMBL1201861, “Genomics of Drug Sensitity in Cancer screening data, Wellcome Trust Sanger Institute”:

Assays:
HCC1599 = experiment: cells; type: functional, cell-based, Homo sapiens; settings: Homo sapiens, HCC1599;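 further: growth inhibition of HCC1599 cells, read out in a cell viability assay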
Description: SANGER: Inhibition of human HCC1599 cell growth in a cell viability assay.

KP-N-YN = experiment: cells; type: functional, cell-based, Homo sapiens; settings: Homo sapiens, KP-N-YN;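 further: growth inhibition of KP-N-YN cells, read out with a cell viability assay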
Description: SANGER: Inhibition of human KP-N-YN cell growth in a cell viability assay.

K052 = experiment: cells; type: functional, cell-based, Homo sapiens; settings: Homo sapiens, K052;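 further: Read-out from a cell viability assay, IC50 reflecting suppression of K052 cell growth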
Description: SANGER: Inhibition of human K052 cell growth in a cell viability assay.

MDA-MB-134-VI = experiment: cells; type: functional, cell-based, Homo sapiens; settings: Homo sapiens, MDA-MB-134-VI
Description: SANGER: Inhibition of human MDA-MB-134-VI cell growth in a cell viability assay.

IST-SL2 = experiment: cells; type: functional, cell-based, Homo sapiens; settings: Homo sapiens, IST-SL2;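 further: growth inhibition of human IST-SL2 cells, read out by a cell viability assay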
Description: SANGER: Inhibition of human IST-SL2 cell growth in a cell viability assay.

NCI-H719 = experiment: cells; type: functional, cell-based, Homo sapiens; settings: Homo sapiens, NCI-H719;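 further: growth inhibition of the cultured cell line, read out with a viability assay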
Description: SANGER: Inhibition of human NCI-H719 cell growth in a cell viability assay.

U-698-M = experiment: cells; type: functional, cell-based, Homo sapiens; settings: Homo sapiens, U-698-M
Description: SANGER: Inhibition of human U-698-M cell growth in a cell viability assay.

BL-70 = experiment: SANGER: Inhibition of human BL-70 cell growth in a cell viability assay.; type: functional, cell-based; settings: Homo sapiens, BL-70
IM-9 = experiment: SANGER: Inhibition of human IM-9 cell growth in a cell viability assay.; type: functional, cell-based; settings: Homo sapiens, IM-9
LP-1 = experiment: cells; type: functional, cell-based, Homo sapiens; settings: Homo sapiens, LP-1;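 further: growth inhibition of human LP-1 cells, with the read-out taken from a cell viability assay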
Description: SANGER: Inhibition of human LP-1 cell growth in a cell viability assay.

NCI-H64 = experiment: cells; type: functional, cell-based, Homo sapiens; settings: Homo sapiens, NCI-H64;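 further: growth inhibition of NCI-H64 cells, read out with a cell viability assay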
Description: SANGER: Inhibition of human NCI-H64 cell growth in a cell viability assay.

EHEB = experiment: cells; type: functional, cell-based, Homo sapiens; settings: Homo sapiens, EHEB;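 further: growth inhibition of human EHEB cells, read out with a cell viability assay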
Description: SANGER: Inhibition of human EHEB cell growth in a cell viability assay.

RMG-I = experiment: cells; type: functional, cell-based, Homo sapiens; settings: Homo sapiens, RMG-I;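 further: growth inhibition of human RMG-I cells, read out with a cell viability assay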
Description: SANGER: Inhibition of human RMG-I cell growth in a cell viability assay.

A 172 = experiment: cells; type: functional, cell-based, Homo sapiens; settings: Homo sapiens, A 172;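 further: growth inhibition of A172 cells, measured with a cell viability readout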
Description: SANGER: Inhibition of human A172 cell growth in a cell viability assay.

NCI-H1993 = experiment: cells; type: functional, cell-based, Homo sapiens; settings: Homo sapiens, NCI-H1993;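 further: growth inhibition of the cancer cell line, assessed with a cell viability assay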
Description: SANGER: Inhibition of human NCI-H1993 cell growth in a cell viability assay.

CAL-51 = experiment: cells; type: functional, cell-based, Homo sapiens; settings: Homo sapiens, CAL-51;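 further: human CAL-51 cell line, growth inhibition read out via a cell viability assay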
Description: SANGER: Inhibition of human CAL-51 cell growth in a cell viability assay.

HCT-15 = experiment: cells; type: functional, cell-based, Homo sapiens; settings: Homo sapiens, HCT-15;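 further: cell viability readout, IC50 reflecting suppression of HCT-15 cell growth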
Description: SANGER: Inhibition of human HCT-15 cell growth in a cell viability assay.

CAKI-1 = experiment: cells; type: functional, cell-based, Homo sapiens; settings: Homo sapiens, CAKI-1;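 further: growth inhibition of CAKI-1 cells, measured by a cell viability assay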
Description: SANGER: Inhibition of human CAKI-1 cell growth in a cell viability assay.

NCI-H1792 = experiment: cells; type: functional, cell-based, Homo sapiens; settings: Homo sapiens, NCI-H1792;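 further: growth inhibition of human NCI-H1792 cells, read out as cell viability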
Description: SANGER: Inhibition of human NCI-H1792 cell growth in a cell viability assay.

HCC1806 = experiment: cells; type: functional, cell-based, Homo sapiens; settings: Homo sapiens, HCC1806;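 further: growth inhibition of the cancer cell line, determined with a cell viability assay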
Description: SANGER: Inhibition of human HCC1806 cell growth in a cell viability assay.

Detroit 562 = experiment: cells; type: functional, cell-based, Homo sapiens; settings: Homo sapiens, Detroit 562;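 further: growth inhibition of human Detroit 562 cells, read out by a cell viability assay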
Description: SANGER: Inhibition of human Detroit562 cell growth in a cell viability assay.

HT-1376 = experiment: cells; type: functional, cell-based, Homo sapiens; settings: Homo sapiens, HT-1376
Description: SANGER: Inhibition of human HT-1376 cell growth in a cell viability assay.

SK-HEP1 = experiment: cells; type: functional, cell-based, Homo sapiens, SK-HEP-1; settings: Homo sapiens, SK-HEP1;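 further: cell viability readout used to quantify reduction in proliferation of human SK-HEP-1 cells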
Description: SANGER: Inhibition of human SK-HEP-1 cell growth in a cell viability assay.

Capan-2 = experiment: cells; type: functional, cell-based, Homo sapiens; settings: Homo sapiens, Capan-2;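 further: Capan-2 cell growth inhibition, read out with a viability assay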
Description: SANGER: Inhibition of human Capan-2 cell growth in a cell viability assay.

NCI-H522 = experiment: cells; type: functional, cell-based, Homo sapiens; settings: Homo sapiens, NCI-H522;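 further: cell viability assay measuring growth inhibition of human NCI-H522 cells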
Description: SANGER: Inhibition of human NCI-H522 cell growth in a cell viability assay.

MIA PaCa-2 = experiment: cells; type: functional, cell-based, Homo sapiens; settings: Homo sapiens, MIA PaCa-2;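 further: growth inhibition of MIA PaCa-2 cells, read out with a cell viability assay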
Description: SANGER: Inhibition of human MIA-PaCa-2 cell growth in a cell viability assay.

M059J = experiment: cells; type: functional, cell-based, Homo sapiens; settings: Homo sapiens, M059J;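 further: growth inhibition of M059J cells, read out with a cell viability assay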
Description: SANGER: Inhibition of human M059J cell growth in a cell viability assay.

NCI-H358 = experiment: cells; type: functional, cell-based, Homo sapiens; settings: Homo sapiens, NCI-H358;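 further: growth inhibition of NCI-H358 human cells, read out with a cell viability assay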
Description: SANGER: Inhibition of human NCI-H358 cell growth in a cell viability assay.

RPMI-2650 = experiment: cells; type: functional, cell-based, Homo sapiens; settings: Homo sapiens, RPMI-2650
Description: SANGER: Inhibition of human RPMI-2650 cell growth in a cell viability assay.

CAL-12T = experiment: cells; type: functional, cell-based, Homo sapiens; settings: Homo sapiens, CAL-12T;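 further: growth inhibition of human CAL-12T cells, read out with a cell viability assay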
Description: SANGER: Inhibition of human CAL-12T cell growth in a cell viability assay.

SK-OV-3 = experiment: cells; type: functional, cell-based, Homo sapiens; settings: Homo sapiens, SK-OV-3;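 further: growth inhibition of SK-OV-3 human cells, read out with a cell viability assay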
Description: SANGER: Inhibition of human SK-OV-3 cell growth in a cell viability assay.

KYSE-150 cell line = experiment: cells; type: functional, cell-based, Homo sapiens; settings: Homo sapiens, KYSE-150;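 further: growth inhibition of human KYSE-150 cells, read out with a cell viability assay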
Description: SANGER: Inhibition of human KYSE-150 cell growth in a cell viability assay.

U-251 = experiment: cells; type: functional, cell-based, Homo sapiens; settings: Homo sapiens, U-251;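 further: growth inhibition of human U-251 cells, read out through a cell viability assay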
Description: SANGER: Inhibition of human U251 cell growth in a cell viability assay.

SJRH30 = experiment: cells; type: functional, cell-based, Homo sapiens; settings: Homo sapiens, SJRH30;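 further: growth inhibition of human SJRH30 cells, read out with a cell viability assay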
Description: SANGER: Inhibition of human SJRH30 cell growth in a cell viability assay.

CAL-85-1 = experiment: cells; type: functional, cell-based, Homo sapiens; settings: Homo sapiens, CAL-85-1;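 further: growth inhibition of human CAL-85-1 cells, read out with a cell viability assay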
Description: SANGER: Inhibition of human CAL-85-1 cell growth in a cell viability assay.

ME-180 = experiment: cells; type: functional, cell-based, Homo sapiens; settings: Homo sapiens, ME-180;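 further: cell viability assay measuring growth inhibition of ME-180 cells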
Description: SANGER: Inhibition of human ME-180 cell growth in a cell viability assay.

HCC38 = experiment: cells; type: functional, cell-based, Homo sapiens; settings: Homo sapiens, HCC38;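 further: cell viability assay on the human HCC38 cell line, with IC50 marking the concentration that inhibits cell growth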
Description: SANGER: Inhibition of human HCC38 cell growth in a cell viability assay.

GP5d = experiment: cells; type: functional, cell-based, Homo sapiens; settings: Homo sapiens, GP5d;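 further: growth inhibition of human GP5d cells, read out with a cell viability assay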
Description: SANGER: Inhibition of human GP5d cell growth in a cell viability assay.

UACC-893 = experiment: cells; type: functional, cell-based, Homo sapiens; settings: Homo sapiens, UACC-893
Description: SANGER: Inhibition of human UACC-893 cell growth in a cell viability assay.

BFTC-905 = experiment: cells; type: functional, cell-based, Homo sapiens; settings: Homo sapiens, BFTC-905
Description: SANGER: Inhibition of human BFTC-905 cell growth in a cell viability assay.

MHH-ES-1 = experiment: cells; type: functional, cell-based, Homo sapiens; settings: Homo sapiens, MHH-ES-1
Description: SANGER: Inhibition of human MHH-ES-1 cell growth in a cell viability assay.

ABC-1 = experiment: cells; type: functional, cell-based, Homo sapiens; settings: Homo sapiens, ABC-1;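 further: growth inhibition of human ABC-1 cells, read out by a cell viability assay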
Description: SANGER: Inhibition of human ABC-1 cell growth in a cell viability assay.

KOSC-2 = experiment: cells; type: functional, cell-based, Homo sapiens; settings: Homo sapiens, KOSC-2;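 further: growth inhibition of KOSC-2 cells, read out by a cell viability assay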
Description: SANGER: Inhibition of human KOSC-2 cell growth in a cell viability assay.

OAW-28 = experiment: cells; type: functional, cell-based, Homo sapiens; settings: Homo sapiens, OAW-28;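 further: growth inhibition of OAW-28 cells, read out with a cell viability assay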
Description: SANGER: Inhibition of human OAW-28 cell growth in a cell viability assay.

CHP-212 = experiment: cells; type: functional, cell-based, Homo sapiens; settings: Homo sapiens, CHP-212
Description: SANGER: Inhibition of human CHP-212 cell growth in a cell viability assay.

Measured: IC50

COc1cc(N2CCN(C)CC2)ccc1Nc1ncc2c(n1)N(C)c1ccccc1C(=O)N2C
> 8 µM: HCC1599 | KP-N-YN | MDA-MB-134-VI | NCI-H719 | U-698-M | BL-70 | IM-9 | LP-1 | NCI-H64
6.24 µM: K052
3.82 µM: IST-SL2

COc1cc(-c2nn([C@H]3CC[C@H](N4CCN(C(C)=O)CC4)CC3)c3ncnc(N)c23)ccc1NC(=O)c1cc2ccccc2n1C
1.16 µM: IST-SL2
> 5.12 µM: HCC1599 | K052 | MDA-MB-134-VI | NCI-H719 | U-698-M | IM-9 | LP-1 | EHEB | NCI-H64
< 0.02 µM: BL-70

OCCCNc1cc(-c2ccnc(Nc3cccc(Cl)c3)n2)ccn1
0.0903 µM: NCI-H64
0.0249 µM: IST-SL2
0.191 µM: EHEB
> 0.256 µM: K052 | MDA-MB-134-VI | NCI-H719 | U-698-M | IM-9
0.0521 µM: LP-1
0.0439 µM: HCC1599
0.0301 µM: BL-70

Cc1ccc(-c2c(C(=O)CCl)n(CCCO)c3ncnc(N)c23)cc1
2.17 µM: HCC1599
> 4 µM: K052 | MDA-MB-134-VI | IST-SL2 | NCI-H719 | U-698-M | BL-70 | IM-9 | LP-1 | EHEB | NCI-H64

C=C(c1ccc(C(=O)O)cc1)c1cc2c(cc1C)C(C)(C)CCC2(C)C [BEXAROTENE]
3.96 µM: CAL-12T
not listed: KP-N-YN
> 8 µM: all other assays above

C#Cc1cccc(Nc2ncnc3cc(OCCOC)c(OCCOC)cc23)c1 [ERLOTINIB]
> 2 µM: HCC1599 | IST-SL2 | NCI-H719 | U-698-M | BL-70 | IM-9 | LP-1 | EHEB | NCI-H64
